Reference: EP4563149A1, “LURBINECTEDIN, ECUBECTEDIN AND A RELATED COMPOUND FOR USE IN THE TREATMENT OF SKIN CANCERS” (Pharma Mar, S.A., priority 2023, dated 2025)
Like-named read-outs stand apart in the source and are kept apart here.

Tests used:
IGR37 [1] = experiment: Cell viability assay (PrestoBlue), 72h, last line of Table 2; conditions: Homo sapiens, IGR-37, 72 h
Experimental: (§6) Cells were grown at 37°C in 5% CO2 (10% for Hermes 3A) and were regularly checked for mycoplasma contamination. […] Melanoma IGR cell lines (IGR37 and IGR39) were grown in RPMI w/o HEPES (Gibco, Invitrogen) supplemented with 15% FCS and gentamycin.
(§7) To determine the IC50 (half maximal inhibitory concentration) of these cells to various inhibitors, cell viability assays were performed.
(§8) After 72h of treatment with different concentrations of the compounds, cells were treated with PrestoBlue reagent according to the manufacturer's instructions. The absorbance per well was measured with a Cellinsight CX5 microplate reader. Data were analyzed using Prism9 statistical software.

MM011 = experiment: Cell viability assay (PrestoBlue), 72h; conditions: Homo sapiens
Experimental: (§9) Cells were grown at 37°C in 5% CO2 (10% for Hermes 3A) and were regularly checked for mycoplasma contamination. […] Melanoma cell lines 501mel and SKmel28 were grown in RPMI w/o HEPES (Gibco, Invitrogen) supplemented with 10% FCS and gentamycin. Vemurafenib-resistant cells (501melVemuR and MM074VemuR) were additionally supplemented with 1.5 µM of vemurafenib. Melanoma IGR cell lines (IGR37 and IGR39) were grown in RPMI w/o HEPES (Gibco, Invitrogen) supplemented with 15% FCS and gentamycin.
as §7, §8

SKMEL-28 = experiment: Cell viability assay (PrestoBlue), 72h; conditions: Homo sapiens, SK-MEL-28, 72 h
Experimental: as §9, §7, §8

MM074 = experiment: Cell viability assay (PrestoBlue), 72h; conditions: Homo sapiens
Experimental: as §9, §7, §8

501mel^VemuR = experiment: Cell viability assay (PrestoBlue), 72h; conditions: Homo sapiens
Experimental: (§10) Cells were grown at 37°C in 5% CO2 (10% for Hermes 3A) and were regularly checked for mycoplasma contamination. MM patient-derived short-term melanoma cultures (MM011, MM074, MM117, MM029, MM047, MM099) were grown in HAM-F10 (Gibco, Invitrogen) supplemented with 10% Fetal Calf Serum (FCS), 25 mM HEPES, 5.2 mM GLUTAMAX and penicillin-streptomycin. Melanoma cell lines 501mel and SKmel28 were grown in RPMI w/o HEPES (Gibco, Invitrogen) supplemented with 10% FCS and gentamycin. Vemurafenib-resistant cells (501melVemuR and MM074VemuR) were additionally supplemented with 1.5 µM of vemurafenib. Melanoma IGR cell lines (IGR37 and IGR39) were grown in RPMI w/o HEPES (Gibco, Invitrogen) supplemented with 15% FCS and gentamycin.
as §7, §8

MM074 melanospheres = experiment: Melanosphere viability (CellTiterGlo); assay type: cell-based, human; conditions: 72h, doses equivalent to 5×IC50
Experimental: MM074 proliferative/differentiated cell line were seeded (5×10^4 cells) in ultra-low attachment hydrogel-layered 96 well plates in KO DMEM medium supplemented with 20% KSR, AANE, 2 mM Glutamax, Penicillin/Streptomycin and 100 uM Beta-mercaptoethanol. To allow for melanosphere formation, cells were left to grow for 4 days before drug treatment.
To analyze melanosphere viability after drug treatment, cells were treated with CellTiterGlo reagent (Promega) according to the manufacturer's instructions. Luminescence signals were measured with a Centro XS LB 960 microplate reader (Berthold).

IGR37 [2] = experiment: Cell viability assay (PrestoBlue), 72h; conditions: Homo sapiens, IGR-37, 72 h
Experimental: as §9, §7, §8

melanoma cells = experiment: Apoptosis by flow cytometry (AnnexinV-APC); assay type: cell-based, human; conditions: IC50 concentrations, Annexin V-APC
Experimental: After 48h of incubation, cells were rinsed and incubated with AnnexinV-APC (BD Biosciences). Cell proliferation and apoptosis were detected on a BD LSRFortessaTM Flow Cytometer. Data were analyzed with FlowJo software. To define slow proliferating or apoptotic cells: it was considered that slow proliferating cells represented the 30% of cells with the highest concentration of CellTrace Violet signal in the DMSO control. […] For apoptotic cells, it was considered the 20% of cells with the highest signal of AnnexinV-APC in the DMSO control.

melanoma cells 501mel = experiment: Cell cycle analysis by flow cytometry (PI); assay type: cell-based, human; conditions: IC50 concentrations
Experimental: For cell cycle analysis, 2×10^6 cells were seeded in 6 well plates. […] After 2 washes with cold PBS, cells were incubated with RNAse A and PI for 1h in the dark, before being analyzed on a BD LSRFortessaTM Flow Cytometer. Data were analysed with FlowJo software.

[3] = test system: LOX-IMVI melanoma xenografts; conditions: 1.2 mg/kg intravenous
Experimental: (§1) Female athymic nu/nu mice (Harlan Laboratories Models, S.L. Barcelona, Spain or Envigo, Spain) were utilized for all experiments. Animal were housed in individually ventilated cages Sealsafe® Plus, Techmplast S.P.A.), up to ten per cage on a 12-hour light-dark cycle at 21-23 °C and 40-60 % humidity. Mice were allowed free access to irradiated standard rodent diet (Tecklad 2914C) and sterilized water. Animals were acclimated for at least 5 days prior to tumor implantation with a tumor cell suspension.
(§2) The cell line used are: • 501mel • IGR-37 • SK-Mel-28 • WM-266-4 • LOX-IMVI • 501mel^Vemur
(§3) In xenograft studies with cell lines: • Tumour volume was calculated using the equation […], where a: length (longest diameter) and b: width (shortest diameter) were measured in mm by using digital caliper (Fowler Sylvac, S235PAT). Tumour dimensions and body weights were recorded 2-3 times per week starting from the first day of treatment. • When tumors reached ca. 150-250 mm^3, tumour bearing animals (N = 8-10/group) were randomly allocated into the treatment groups, based on body weight and tumour measurements by using NewLab Oncology Software (version 2.25.06.00). • Comparison between median tumour volume of treated and placebo groups was used for evaluation of the antitumoural efficacy. • Animals were euthanized when their tumours reached ca. 1,500 mm^3 and/or severe necrosis was seen.
(§4) Treatments producing >20 % lethality and/or 20% net body weight loss were considered toxic.
(§5) In these experiments, PM14 and Compound IA, as well as placebo, were intravenously administered once per week for 3 consecutive weeks, on days 0, 7 and 14, whenever it was possible.
Tumour volume evaluation in LOX-IMVI melanoma xenografts with PM14 and Compound IA and placebo.

[4] = test system: 501mel melanoma xenografts; conditions: 1.2 mg/kg intravenous
Experimental: as §1, §2, §3, §4, §5
Table 4. Tumour volume evaluation in 501mel melanoma xenografts with PM14 and Compound IA and placebo.

MM074^VemuR = experiment: Cell viability assay (PrestoBlue), 72h; conditions: Homo sapiens
Experimental: as §10, §7, §8

Hermes3A = experiment: Cell viability assay (PrestoBlue), 72h; conditions: for sensitivity of non-cancerous Hermes3A immortalized melanocytes compared with the melanoma cells: Hermes3A versus melanoma cells; for IC50: Homo sapiens, Melanocyte, 72 h
Experimental: as §6, §7, §8

[5] = test system: WM-266-4 melanoma xenografts; conditions: 1.2 mg/kg intravenous
Experimental: as §1, §2, §3, §4, §5
Table 7. Tumour volume evaluation in WM-266-4 melanoma xenografts with PM14 and Compound IA and placebo.

COc1c(C)cc2c(c1O)[C@@H]1[C@@H]3[C@@H]4SC[C@]5(N[C@H](CO)Cc6c5[nH]c5ccccc65)C(=O)OC[C@@H](c5c6c(c(C)c(OC(C)=O)c54)OCO6)N3[C@@H](O)[C@H](C2)N1C [PM14, ecubectedin]
IC50 (IGR37 [1]): 0.78 nM
IC50 (MM011): 1.07 nM
IC50 (SKMEL-28): 1.31 nM
IC50 (MM074): 1.15 nM
IC50 (501mel^VemuR): 1.04 nM
cell viability in 3D culture (MM074 melanospheres): significant cytotoxic effects
IC50 (IGR37 [2]): 1.05 nM
apoptosis (melanoma cells): induction of apoptosis
cell cycle progression (melanoma cells 501mel): notable blockade
Median Tumour Volume ([3]; days 0, 7 and 14, day 0): 185 mm^3
Median Tumour Volume ([3]; days 0, 7 and 14, day 2): 173.7 mm^3
Median Tumour Volume ([3]; days 0, 7 and 14, day 4): 103.2 mm^3
Median Tumour Volume ([3]; days 0, 7 and 14, day 7): 73.8 mm^3
Median Tumour Volume ([3]; days 0, 7 and 14, day 9): 68.5 mm^3
Median Tumour Volume ([3]; days 0, 7 and 14, day 11): 51.2 mm^3
Median Tumour Volume ([3]; days 0, 7 and 14, day 14): 37.5 mm^3
Median Tumour Volume ([3]; days 0, 7 and 14, day 16): 40.8 mm^3
Median Tumour Volume ([3]; days 0, 7 and 14, day 18): 35.3 mm^3
Median Tumour Volume ([3]; days 0, 7 and 14, day 21): 43.5 mm^3
Median Tumour Volume ([3]; days 0, 7 and 14, day 23): 55.5 mm^3
Median Tumour Volume ([3]; days 0, 7 and 14, day 25): 68.5 mm^3
Median Tumour Volume ([3]; days 0, 7 and 14, day 28): 233.4 mm^3
Median Tumour Volume ([3]; days 0, 7 and 14, day 30): 547.3 mm^3
Median Tumour Volume ([3]; days 0, 7 and 14, day 32): 1,044 mm^3
Median Tumour Volume ([3]; days 0, 7 and 14, day 35): 1,565 mm^3
Median Tumour Volume ([3]; days 0, 7 and 14, day 37): 1,610.4 mm^3
Median Tumour Volume ([4]; days 0, 7 and 14, day 0): 158.8 mm^3
Median Tumour Volume ([4]; days 0, 7 and 14, day 3): 215.5 mm^3
Median Tumour Volume ([4]; days 0, 7 and 14, day 5): 252.3 mm^3
Median Tumour Volume ([4]; days 0, 7 and 14, day 7): 372.7 mm^3
Median Tumour Volume ([4]; days 0, 7 and 14, day 10): 503.6 mm^3
Median Tumour Volume ([4]; days 0, 7 and 14, day 12): 599.4 mm^3
Median Tumour Volume ([4]; days 0, 7 and 14, day 14): 797.2 mm^3
Median Tumour Volume ([4]; days 0, 7 and 14, day 17): 950 mm^3
Median Tumour Volume ([4]; days 0, 7 and 14, day 19): 1,113.5 mm^3
Median Tumour Volume ([4]; days 0, 7 and 14, day 21): 1,309.8 mm^3
Median Tumour Volume ([4]; days 0, 7 and 14, day 24): 1,530.7 mm^3
IC50 (MM074^VemuR): 1.63 nM
sensitivity of non-cancerous Hermes3A immortalized melanocytes compared with the melanoma cells (Hermes3A): less sensitive
IC50 (Hermes3A): 2.89 nM
Median Tumour Volume ([5]; days 0, 7 and 14, day 0): 169.5 mm^3
Median Tumour Volume ([5]; days 0, 7 and 14, day 3): 115.1 mm^3
Median Tumour Volume ([5]; days 0, 7 and 14, day 5): 118.2 mm^3
Median Tumour Volume ([5]; days 0, 7 and 14, day 7): 136.6 mm^3
Median Tumour Volume ([5]; days 0, 7 and 14, day 10): 133.1 mm^3
Median Tumour Volume ([5]; days 0, 7 and 14, day 12): 109.8 mm^3
Median Tumour Volume ([5]; days 0, 7 and 14, day 14): 138.4 mm^3
Median Tumour Volume ([5]; days 0, 7 and 14, day 17): 129.6 mm^3
Median Tumour Volume ([5]; days 0, 7 and 14, day 19): 119.2 mm^3
Median Tumour Volume ([5]; days 0, 7 and 14, day 21): 150.4 mm^3
Median Tumour Volume ([5]; days 0, 7 and 14, day 24): 137.2 mm^3
Median Tumour Volume ([5]; days 0, 7 and 14, day 26): 146.9 mm^3
Median Tumour Volume ([5]; days 0, 7 and 14, day 28): 197.6 mm^3
Median Tumour Volume ([5]; days 0, 7 and 14, day 34): 388.1 mm^3
Median Tumour Volume ([5]; days 0, 7 and 14, day 41): 727.7 mm^3
Median Tumour Volume ([5]; days 0, 7 and 14, day 45): 1,111.6 mm^3
Median Tumour Volume ([5]; days 0, 7 and 14, day 48): 1,503.6 mm^3

COc1c(C)cc2c(c1O)[C@@H]1[C@@H]3[C@@H]4SC[C@]5(N[C@H](CO)Cc6c5oc5ccccc65)C(=O)OC[C@@H](c5c6c(c(C)c(OC(C)=O)c54)OCO6)N3[C@@H](O)[C@H](C2)N1C [Compound IA]
IC50 (IGR37 [1]): 0.84 nM
IC50 (MM011): 1.44 nM
IC50 (SKMEL-28): 1.74 nM
IC50 (MM074): 3.81 nM
IC50 (501mel^VemuR): 2.13 nM
cell viability in 3D culture (MM074 melanospheres): significant cytotoxic effects
IC50 (IGR37 [2]): 1.48 nM
apoptosis (melanoma cells): induction of apoptosis
cell cycle progression (melanoma cells 501mel): notable blockade
Median Tumour Volume ([3]; days 0, 7 and 14, day 0): 186.2 mm^3
Median Tumour Volume ([3]; days 0, 7 and 14, day 2): 196.3 mm^3
Median Tumour Volume ([3]; days 0, 7 and 14, day 4): 138.7 mm^3
Median Tumour Volume ([3]; days 0, 7 and 14, day 7): 106.8 mm^3
Median Tumour Volume ([3]; days 0, 7 and 14, day 9): 87.8 mm^3
Median Tumour Volume ([3]; days 0, 7 and 14, day 11): 56 mm^3
Median Tumour Volume ([3]; days 0, 7 and 14, day 14): 53.5 mm^3
Median Tumour Volume ([3]; days 0, 7 and 14, day 16): 54.7 mm^3
Median Tumour Volume ([3]; days 0, 7 and 14, day 18): 51.4 mm^3
Median Tumour Volume ([3]; days 0, 7 and 14, day 21): 71.2 mm^3
Median Tumour Volume ([3]; days 0, 7 and 14, day 23): 99.9 mm^3
Median Tumour Volume ([3]; days 0, 7 and 14, day 25): 132 mm^3
Median Tumour Volume ([3]; days 0, 7 and 14, day 28): 597.7 mm^3
Median Tumour Volume ([3]; days 0, 7 and 14, day 30): 1,158.4 mm^3
Median Tumour Volume ([3]; days 0, 7 and 14, day 32): 1,098.3 mm^3
Median Tumour Volume ([3]; days 0, 7 and 14, day 35): 968.8 mm^3
Median Tumour Volume ([3]; days 0, 7 and 14, day 37): 1,375.6 mm^3
Median Tumour Volume ([4]; days 0, 7 and 14, day 0): 158.5 mm^3
Median Tumour Volume ([4]; days 0, 7 and 14, day 3): 208.3 mm^3
Median Tumour Volume ([4]; days 0, 7 and 14, day 5): 279.8 mm^3
Median Tumour Volume ([4]; days 0, 7 and 14, day 7): 328.5 mm^3
Median Tumour Volume ([4]; days 0, 7 and 14, day 10): 455.2 mm^3
Median Tumour Volume ([4]; days 0, 7 and 14, day 12): 614.1 mm^3
Median Tumour Volume ([4]; days 0, 7 and 14, day 14): 749.8 mm^3
Median Tumour Volume ([4]; days 0, 7 and 14, day 17): 913 mm^3
Median Tumour Volume ([4]; days 0, 7 and 14, day 19): 1,233 mm^3
Median Tumour Volume ([4]; days 0, 7 and 14, day 21): 1,341.4 mm^3
Median Tumour Volume ([4]; days 0, 7 and 14, day 24): 1,581.4 mm^3
IC50 (MM074^VemuR): 3.08 nM
sensitivity of non-cancerous Hermes3A immortalized melanocytes compared with the melanoma cells (Hermes3A): less sensitive
IC50 (Hermes3A): 4.93 nM
Median Tumour Volume ([5]; days 0, 7 and 14, day 0): 169.5 mm^3
Median Tumour Volume ([5]; days 0, 7 and 14, day 3): 109.8 mm^3
Median Tumour Volume ([5]; days 0, 7 and 14, day 5): 100 mm^3
Median Tumour Volume ([5]; days 0, 7 and 14, day 7): 104.4 mm^3
Median Tumour Volume ([5]; days 0, 7 and 14, day 10): 97.8 mm^3
Median Tumour Volume ([5]; days 0, 7 and 14, day 12): 89.2 mm^3
Median Tumour Volume ([5]; days 0, 7 and 14, day 14): 94.9 mm^3
Median Tumour Volume ([5]; days 0, 7 and 14, day 17): 68.8 mm^3
Median Tumour Volume ([5]; days 0, 7 and 14, day 19): 75.7 mm^3
Median Tumour Volume ([5]; days 0, 7 and 14, day 21): 95.2 mm^3
Median Tumour Volume ([5]; days 0, 7 and 14, day 24): 75.7 mm^3
Median Tumour Volume ([5]; days 0, 7 and 14, day 26): 96.7 mm^3
Median Tumour Volume ([5]; days 0, 7 and 14, day 28): 99.4 mm^3
Median Tumour Volume ([5]; days 0, 7 and 14, day 34): 134.3 mm^3
Median Tumour Volume ([5]; days 0, 7 and 14, day 41): 275.2 mm^3
Median Tumour Volume ([5]; days 0, 7 and 14, day 45): 312.1 mm^3
Median Tumour Volume ([5]; days 0, 7 and 14, day 48): 461.7 mm^3
Median Tumour Volume ([5]; days 0, 7 and 14, day 55): 749.7 mm^3
Median Tumour Volume ([5]; days 0, 7 and 14, day 62): 985.3 mm^3
Median Tumour Volume ([5]; days 0, 7 and 14, day 69): 1,145.3 mm^3
